Measured values reported in patent US12441722B2, “Therapeutic agents and methods of treatment” (University of Florida Research Foundation, Incorporated, priority 2020, dated 2025).

Tested on: MOLT-4
Test: Cell viability assay (tetrazolium-based MTS) in MOLT4 cells
Settings: Homo sapiens, MOLT-4, MOLT4 acute lymphoblastic leukemia cells, 48 h incubation
Experimental: Cancer cells from acute lymphoblastic leukemia (MOLT4) were incubated with increasing concentrations of compounds of Examples 1-9 for 48 h. Cell viability was measured by tetrazolium-based MTS assay. 5×10^4 to 1×10^5 suspension cells or 3×10^3 to 5×10^3 adherent cells were seeded and treated in 96-well plates for 48 h. The EC50 values of individual agents were calculated with GraphPad Prism.

SMILES	EC50 [nM]
Cc1c(-c2ccc(N3CCc4cccc(C(=O)Nc5nc6ccccc6s5)c4C3)nc2C(=O)O)cnn1CC12CC3CC(CC(C3)C1)C2 [A1331852, reference compound]	< 10
Cc1c(-c2ccc(N3CCc4cccc(C(=O)Nc5nc6ccccc6s5)c4C3)nc2C(=O)NS(=O)(=O)CCCn2cc(COCCOCCNc3cccc4c3C(=O)N(C3CCC(=O)NC3=O)C4=O)nn2)cnn1CC12CC3CC(CC(C3)C1)C2 (centres unmarked) [degrader #1, 2-(5-(1-(adamantan-1-ylmethyl)-5-methyl-1H-pyrazol-4-yl)-6-(((3-(4-((2-(2-((2-(2,6-dioxopiperidin-3-yl)-1,3-dioxoisoindolin-4-yl)amino)ethoxy)ethoxy)methyl)-1H-1,2,3-triazol-1-yl)propyl)sulfonyl)carbamoyl)pyridin-2-yl)-N-(benzo[d]thiazol-2-yl)-1,2,3,4-tetrahydroisoquinoline-8-carboxamide]	10 to 100
Cc1c(-c2ccc(N3CCc4cccc(C(=O)Nc5nc6ccccc6s5)c4C3)nc2C(=O)NS(=O)(=O)CCCn2cc(COCCOCCNc3cccc4c3C(=O)N(C3CCC(=O)NC3=O)C4=O)nn2)cc(C#N)n1CC12CC3CC(CC(C3)C1)C2 (centres unmarked) [degrader #2, 2-(5-(1-(adamantan-1-ylmethyl)-5-cyano-2-methyl-1H-pyrrol-3-yl)-6-(((3-(4-((2-(2-((2-(2,6-dioxopiperidin-3-yl)-1,3-dioxoisoindolin-4-yl)amino)ethoxy)ethoxy)methyl)-1H-1,2,3-triazol-1-yl)propyl)sulfonyl)carbamoyl)pyridin-2-yl)-N-(benzo[d]thiazol-2-yl)-1,2,3,4-tetrahydroisoquinoline-8-carboxamide]	10 to 100
Cc1c(-c2ccc(N3CCc4cccc(C(=O)Nc5nc6ccccc6s5)c4C3)nc2C(=O)NCCCCNc2cccc3c2C(=O)N(C2CCC(=O)NC2=O)C3=O)cnn1CC12CC3CC(CC(C3)C1)C2 (centres unmarked) [degrader #3, 2-(5-(1-(adamantan-1-ylmethyl)-5-methyl-1H-pyrazol-4-yl)-6-((4-((2-(2,6-dioxopiperidin-3-yl)-1,3-dioxoisoindolin-4-yl)amino)butyl)carbamoyl)pyridin-2-yl)-N-(benzo[d]thiazol-2-yl)-1,2,3,4-tetrahydroisoquinoline-8-carboxamide]	100 to 1000
Cc1c(-c2ccc(N3CCc4cccc(C(=O)Nc5nc6ccccc6s5)c4C3)nc2C(=O)NCCCCCCNc2cccc3c2C(=O)N(C2CCC(=O)NC2=O)C3=O)cnn1CC12CC3CC(CC(C3)C1)C2 (centres unmarked) [degrader #4, 2-(5-(1-(adamantan-1-ylmethyl)-5-methyl-1H-pyrazol-4-yl)-6-((6-((2-(2,6-dioxopiperidin-3-yl)-1,3-dioxoisoindolin-4-yl)amino)hexyl)carbamoyl)pyridin-2-yl)-N-(benzo[d]thiazol-2-yl)-1,2,3,4-tetrahydroisoquinoline-8-carboxamide]	100 to 1000
Cc1c(-c2ccc(N3CCc4cccc(C(=O)Nc5nc6ccccc6s5)c4C3)nc2C(=O)NCCCCCCCCNc2cccc3c2C(=O)N(C2CCC(=O)NC2=O)C3=O)cnn1CC12CC3CC(CC(C3)C1)C2 (centres unmarked) [degrader #5, 2-(5-(1-(adamantan-1-ylmethyl)-5-methyl-1H-pyrazol-4-yl)-6-((8-((2-(2,6-dioxopiperidin-3-yl)-1,3-dioxoisoindolin-4-yl)amino)octyl)carbamoyl)pyridin-2-yl)-N-(benzo[d]thiazol-2-yl)-1,2,3,4-tetrahydroisoquinoline-8-carboxamide]	100 to 1000
Cc1c(-c2ccc(N3CCc4cccc(C(=O)Nc5nc6ccccc6s5)c4C3)nc2C(=O)NCCOCCNc2cccc3c2C(=O)N(C2CCC(=O)NC2=O)C3=O)cnn1CC12CC3CC(CC(C3)C1)C2 (centres unmarked) [degrader #6, 2-(5-(1-(adamantan-1-ylmethyl)-5-methyl-1H-pyrazol-4-yl)-6-((2-(2-((2-(2,6-dioxopiperidin-3-yl)-1,3-dioxoisoindolin-4-yl)amino)ethoxy)ethyl)carbamoyl)pyridin-2-yl)-N-(benzo[d]thiazol-2-yl)-1,2,3,4-tetrahydroisoquinoline-8-carboxamide]	10 to 100
Cc1c(-c2ccc(N3CCc4cccc(C(=O)Nc5nc6ccccc6s5)c4C3)nc2C(=O)NCCOCCOCCNc2cccc3c2C(=O)N(C2CCC(=O)NC2=O)C3=O)cnn1CC12CC3CC(CC(C3)C1)C2 (centres unmarked) [degrader #7, 2-(5-(1-(adamantan-1-ylmethyl)-5-methyl-1H-pyrazol-4-yl)-6-((2-(2-(2-((2-(2,6-dioxopiperidin-3-yl)-1,3-dioxoisoindolin-4-yl)amino)ethoxy)ethoxy)ethyl)carbamoyl)pyridin-2-yl)-N-(benzo[d]thiazol-2-yl)-1,2,3,4-tetrahydroisoquinoline-8-carboxamide]	10 to 100
Cc1ncsc1-c1ccc([C@H](C)NC(=O)[C@@H]2C[C@@H](O)CN2C(=O)[C@@H](NC(=O)CCCS(=O)(=O)NC(=O)c2nc(N3CCc4cccc(C(=O)Nc5nc6ccccc6s5)c4C3)ccc2-c2cnn(CC34CC5CC(CC(C5)C3)C4)c2C)C(C)(C)C)cc1 [degrader #9, 2-(5-(1-(adamantan-1-ylmethyl)-5-methyl-1H-pyrazol-4-yl)-6-(((4-(((S)-1-((2S,4R)-4-hydroxy-2-(((S)-1-(4-(4-methylthiazol-5-yl)phenyl)ethyl)carbamoyl)pyrrolidin-1-yl)-3,3-dimethyl-1-oxobutan-2-yl)amino)-4-oxobutyl)sulfonyl)carbamoyl)pyridin-2-yl)-N-(benzo[d]thiazol-2-yl)-1,2,3,4-tetrahydroisoquinoline-8-carboxamide]	< 10
Cc1ncsc1-c1ccc([C@H](C)NC(=O)[C@@H]2C[C@@H](O)CN2C(=O)[C@@H](NC(=O)CCCCS(=O)(=O)NC(=O)c2nc(N3CCc4cccc(C(=O)Nc5nc6ccccc6s5)c4C3)ccc2-c2cnn(CC34CC5CC(CC(C5)C3)C4)c2C)C(C)(C)C)cc1 [degrader #10, 2-(5-(1-(adamantan-1-ylmethyl)-5-methyl-1H-pyrazol-4-yl)-6-(((5-(((S)-1-((2S,4R)-4-hydroxy-2-(((S)-1-(4-(4-methylthiazol-5-yl)phenyl)ethyl)carbamoyl)pyrrolidin-1-yl)-3,3-dimethyl-1-oxobutan-2-yl)amino)-5-oxopentyl)sulfonyl)carbamoyl)pyridin-2-yl)-N-(benzo[d]thiazol-2-yl)-1,2,3,4-tetrahydroisoquinoline-8-carboxamide]	< 10
Cc1ncsc1-c1ccc([C@H](C)NC(=O)[C@@H]2C[C@@H](O)CN2C(=O)[C@@H](NC(=O)CCCCCS(=O)(=O)NC(=O)c2nc(N3CCc4cccc(C(=O)Nc5nc6ccccc6s5)c4C3)ccc2-c2cnn(CC34CC5CC(CC(C5)C3)C4)c2C)C(C)(C)C)cc1 [degrader #11, 2-(5-(1-(adamantan-1-ylmethyl)-5-methyl-1H-pyrazol-4-yl)-6-(((6-(((S)-1-((2S,4R)-4-hydroxy-2-(((S)-1-(4-(4-methylthiazol-5-yl)phenyl)ethyl)carbamoyl)pyrrolidin-1-yl)-3,3-dimethyl-1-oxobutan-2-yl)amino)-6-oxohexyl)sulfonyl)carbamoyl)pyridin-2-yl)-N-(benzo[d]thiazol-2-yl)-1,2,3,4-tetrahydroisoquinoline-8-carboxamide]	< 10
Cc1ncsc1-c1ccc([C@H](C)NC(=O)[C@@H]2C[C@@H](O)CN2C(=O)[C@@H](NC(=O)CCCCCCCS(=O)(=O)NC(=O)c2nc(N3CCc4cccc(C(=O)Nc5nc6ccccc6s5)c4C3)ccc2-c2cnn(CC34CC5CC(CC(C5)C3)C4)c2C)C(C)(C)C)cc1 [degrader #13, 2-(5-(1-(adamantan-1-ylmethyl)-5-methyl-1H-pyrazol-4-yl)-6-(((8-(((S)-1-((2S,4R)-4-hydroxy-2-(((S)-1-(4-(4-methylthiazol-5-yl)phenyl)ethyl)carbamoyl)pyrrolidin-1-yl)-3,3-dimethyl-1-oxobutan-2-yl)amino)-8-oxooctyl)sulfonyl)carbamoyl)pyridin-2-yl)-N-(benzo[d]thiazol-2-yl)-1,2,3,4-tetrahydroisoquinoline-8-carboxamide]	< 10
Cc1ncsc1-c1ccc([C@H](C)NC(=O)[C@@H]2C[C@@H](O)CN2C(=O)[C@@H](NC(=O)CCCCCCCCS(=O)(=O)NC(=O)c2nc(N3CCc4cccc(C(=O)Nc5nc6ccccc6s5)c4C3)ccc2-c2cnn(CC34CC5CC(CC(C5)C3)C4)c2C)C(C)(C)C)cc1 [degrader #14, 2-(5-(1-(adamantan-1-ylmethyl)-5-methyl-1H-pyrazol-4-yl)-6-(((9-(((S)-1-((2S,4R)-4-hydroxy-2-(((S)-1-(4-(4-methylthiazol-5-yl)phenyl)ethyl)carbamoyl)pyrrolidin-1-yl)-3,3-dimethyl-1-oxobutan-2-yl)amino)-9-oxononyl)sulfonyl)carbamoyl)pyridin-2-yl)-N-(benzo[d]thiazol-2-yl)-1,2,3,4-tetrahydroisoquinoline-8-carboxamide]	< 10

Same assay, conditions: MOLT4 acute lymphoblastic leukemia cells, 48 h incubation

SMILES	EC50 [nM]
Cc1ncsc1-c1ccc([C@H](C)NC(=O)[C@@H]2C[C@@H](O)CN2C(=O)[C@@H](NC(=O)CCCCCCS(=O)(=O)NC(=O)c2nc(N3CCc4cccc(C(=O)Nc5nc6ccccc6s5)c4C3)ccc2-c2cnn(CC34CC5CC(CC(C5)C3)C4)c2C)C(C)(C)C)cc1 [degrader #12, 2-(5-(1-(adamantan-1-ylmethyl)-5-methvl-1H-pyrazol-4-yl)-6-(((7-(((S)-1-((2S,4R)-4-hydroxy-2-(((S)-1-(4-(4-methylthiazol-5-yl)phenyl)ethyl)carbamoyl)pyrrolidin-1-yl)-3,3-dimethyl-1-oxobutan-2-yl)amino)-7-oxoheptyl)sulfonyl)carbamol)pyridin-2-yl)-N-(benzo[d]thiazol-2-yl)-1,2,3,4-tetrahydroisoquinoline-8-carboxamide]	< 10
